The test system of assay [1] is MCF-7 cells. Briefly: Scratch assay (cell migration). It is filed as cell-based, human. The following applies: 24 h.
Description: To assess the effects of the tested compounds on cell migration, the scratch assay method was applied [34]. Cells were seeded in 24-well plates at 2 × 10^5 cells per well in 1 mL medium and incubated overnight. Afterwards, they were left in an incubator at 37 °C for 24 h to attach to the wells. The next day, scratches were made using a 200 µL pipette tip in confluent monolayers. […] Images were obtained by utilizing a Nikon ECLIPSE Ti microscope (Nikon, Tokyo, Japan) after 0, 24, and 48 h. The area of the scratches was measured manually via ImageJ software version 1.54k (Bethesda, MD, USA).
The MCF-7 breast cancer cells were treated for 24 h with the tested compounds in concentrations of 5, 2.5, and 1 µM and doxorubicin hydrochloride in concentrations of 1 and 0.5 µM.
Assay [2] deals with MCF-7 cells. Briefly: Clonogenic assay. The format is cell-based, human. The following applies: 24 h treatment, 10-day endpoint. As to the method: The clonogenic assay was performed in accordance with the published methodology. MCF-7 cells were seeded in 24-well plates at 2.5 × 10^2 cells per well in 1 mL medium. Afterwards, they were left in an incubator at 37 °C for 24 h to attach to the wells. […] After the treatment, the medium was changed to a fresh one and left for 10 days, with an additional change in medium for the fresh one on the 7th day. Next, colonies formed by the seeded cells were washed, fixed for 10 min at 4 °C with 90% methanol, and stained with crystal violet solution (0.1% of crystal violet dissolved in 25% methanol). Afterwards, the plates were washed and dried at room temperature. The wells were photographed and analyzed using ImageJ software version 1.54k (Bethesda, MD, USA), with colonies defined as clusters of fifty or more cells.
Colonies formation was assessed after a 10-day incubation period following the treatment.

Assay [3] has as its system MCF-7 cells. Briefly: [3H]-thymidine incorporation assay. It is filed as cell-based. The note with it: Homo sapiens, 24 h, read-out: [3H]-thymidine incorporation (% of control); for activity at 1 µM: MCF7, 1 µM; for activity at 2.5 µM: MCF7, 2.5 µM; for activity at 5 µM: MCF7, 5 µM. On the procedure: To evaluate the effects of synthesized compounds and reference drug on cell proliferation [3H]-thymidine incorporation assay was applied. MCF-7 cells were seeded on 6-well plates as described before. After 24 h of incubation, the cells were treated with different concentrations of novel 4-thiazolidinone derivatives Les-6416, Les-6418 (1, 2.5, 5 µM), and doxorubicin hydrochloride (0.5 and 1 µM) for 24 h at 37 °C. After 24 h, the medium was changed to a fresh one without fetal bovine serum. A total of 0.5 µCi of tritium-labeled thymidine (specific activity: 7 Ci/mmol) was added to cells for 4 h. Afterwards, the cells were washed with 1 mL of 0.05 M Tris-HCl buffer pH 7.4 containing 0.11 M NaCl and […] 5% trichloroacetic acid (TCA). Each well was filled with 1 mL of a 0.1 M NaOH solution with 1% SDS for cell lysis. After 5 min, the cell lysates were transferred to scintillation vials, which were pre-filled beforehand with two milliliters of scintillation cocktail Ultima Gold XR from PerkinElmer (Waltham, MA, USA). The Scintillation Counter 1900 TR, TRI-CARB (Packard, Perkin Elmer, Inc., San Jose, CA, USA) was used to record the results. The radioactivity observed in untreated control cells was taken as 100%. The values of the tested compound were expressed as a percentage of the control value.
To investigate the antiproliferative activity of Les-6416 and Les-6418 on the MCF-7 cell line after 24 h of treatment, the [^3H]-thymidine incorporation assay was applied. Based on the outcome of previous analysis and the structural similarity of the tested compounds, 5, 2.5, and 1 µM concentrations were applied for this research. The obtained results are shown in the graph below (Figure 2). […] Formidable results also were obtained from the reference drug doxorubicin hydrochloride: 26.00 ± 7.07% for 1 µM and 43.50 ± 3.54% for 0.5 µM
For orientation: Incorporation of labelled thymidine or its analogues reports DNA synthesis.

Assay [4] relates to caspase 9. Briefly: FLICA caspase-9 activity, flow cytometry. It is filed as cell-based, human. The following applies: 5 µM, 24 h, MCF-7. As to the method: To determine the effects of the novel compounds on the caspases-3/7, caspase-8, caspase-9, and caspase-10 activity, the FLICA Caspase-3/7 Assay Kit, FLICA Caspase-8 Assay Kit, FLICA Caspase-9 Assay Kit, and FLICA Caspase-10 Assay Kit were applied (ImmunoChemistry Technologies, Bloomington, MN, USA). MCF-7 cells were seeded on 6-well plates (1 × 10^5 cells per well) and incubated for 24 h. Afterwards, they were treated for 24 h with tested compounds (Les-6416, Les-6418, Les-6381, Les-6423, and Les-6424) in a concentration of 5 µM and the reference drug doxorubicin hydrochloride in a concentration of 0.5 µM. Next, cells were amassed and washed two times with cold PBS, followed by resuspension in an Apoptosis Wash Buffer to a final concentration of 5 × 10^5 cells/mL. Afterwards, 290 µL of the prepared cell suspensions were transferred into tubes, followed by the addition of 10 µL of FLICA solution, prepared immediately before use, to each sample and incubated for an hour at 37 °C. Next, cells were washed two times with 2 mL of Apoptosis Wash Buffer, provided in the kit, centrifuged, and resuspended in 300 µL of the buffer. Prepared samples were assessed by a BD FACSCanto II flow cytometer (Becton Dickinson Biosciences, San Jose, CA, USA). For each sample, 1 × 10^4 events were analyzed. […]

For assay [5], the system named is SF-295. It is filed as cell-based. The note with it: for Growth %: SF-295, 10 μM, one dose, 48 h.
Assay [6] relates to HL-60(TB). It is filed as cell-based.
The test system of assay [7] is HT29. It is filed as cell-based.
In assay [8] the test system is SK-MEL-5. It is filed as cell-based.
The test system of assay [9] is UACC-62. The format is cell-based.
Assay [10] has as its system NCI-H460. It is filed as cell-based. The following applies: for Growth %: NCI-H460, 10 μM, one dose, 48 h.
The subject of assay [11] is MCF7. It is filed as cell-based.

Structures are written as SMILES. Where a name gives a salt, the structure may show the parent alone.

As for `COc1cccc2c1C(=O)c1c(O)c3c(c(O)c1C2=O)C[C@@](O)(C(=O)CO)C[C@@H]3O[C@H]1C[C@H](N)[C@H](O)[C@H](C)O1` [DOX, Doxorubicin hydrochloride, reference compound], the “Closure of the gap area” value in assay [1] (0.5 µM) was determined as 25.50 ± 20.51%. Further, in [2] (1, 0.5, and 0.1 µM), the survival fraction is 0%. The activity at 0.5 µM in assay [3] (MCF7, 0.5 µM) was 43.5 ± 3.54%. For the same compound, the activity at 1 µM in [3] was found to be 26 ± 7.07%.

Take `COc1cc(NC2=NC(=O)C(=Cc3ccc4cc[nH]c4c3)S2)cc(OC)c1OC` [Les-6416, 5-((1H-Indol-6-yl)methylene)-2-((3,4,5-trimethoxyphenyl)amino)thiazol-4(5H)-one]: in assay [4], the “cells with active caspase 9” value turned out to be 41.90 ± 6.89%. Moreover, the “Closure of the gap area” value in assay [1] (1 µM) came out at 21.00 ± 7.07%. The Growth % in assay [5] is on record as 5.01%; in [6] (HL60(TB), 10 μM, one dose, 48 h), 15.10%; in [7] (HT29, 10 μM, one dose, 48 h), 7.66%; in assay [8] (SK-Mel-5, 10 μM, one dose, 48 h), −4.74%; in assay [9] (UACC-62, 10 μM, one dose, 48 h), 18.03%; in assay [10], 17.93%. Moreover, the Growth % in [11] (MCF-7, 10 μM, one dose, 48 h) is recorded as 6.76%. Further, the values for the survival fraction in [2] (2.5 µM) and in [2] (5 µM) were 5.89 ± 0.71% and 1.35 ± 1.42%, respectively. For the same compound, the activity at 1 µM in [3] was found to be 69 ± 1.41%. For the same compound, the activity at 2.5 µM in [3] was 27 ± 5.66%. Moreover, the activity at 5 µM in assay [3] amounted to 21.5 ± 2.12%.

Regarding `COc1cc(NC2=NC(=O)C(=Cc3c[nH]c4ccccc34)S2)cc(OC)c1OC` [Les-6418, 5-((1H-Indol-3-yl)methylene)-2-((3,4,5-trimethoxyphenyl)amino)thiazol-4(5H)-one], the GI50 (in general, the concentration that inhibits growth by half) in assay [5] (Homo sapiens, SF-295, 48 h) was 2270 nM; in assay [6] (Homo sapiens, HL-60(TB), 48 h), 855 nM; in assay [7] (Homo sapiens, HT-29, HT29, 48 h) it was 923 nM; in assay [8] (Homo sapiens, SK-MEL-5, 48 h) it was 2460 nM; in assay [9] (Homo sapiens, UACC-62, 48 h) it was 4.75 µM; in [10] (Homo sapiens, NCI-H460, 48 h) it was 2100 nM. In [11] (Homo sapiens, MCF7, 48 h), this compound had a GI50 of 1790 nM. Besides, the CC50 is 40.9 µM in [5] (Homo sapiens, SF-295, 48 h, read-out: LC50 (the source's name)); over 100 µM in assay [6] (Homo sapiens, HL-60(TB), 48 h, read-out: LC50 (the source's name)); 47.6 µM in [7] (Homo sapiens, HT-29, HT29, 48 h, read-out: LC50 (the source's name)); 39.1 µM in assay [8] (Homo sapiens, SK-MEL-5, 48 h, read-out: LC50 (the source's name)); 48.3 µM in [9] (Homo sapiens, UACC-62, 48 h, read-out: LC50 (the source's name)); 44.7 µM in assay [11] (Homo sapiens, MCF7, 48 h, read-out: LC50 (the source's name)). The Growth % is recorded as −73.38% in assay [5] and −77.59% in assay [10]. Also, the TGI – broadly, the concentration at which net growth stops – in assay [5] (SF-295, 48 h) amounted to 13.4 µM; in [6] (HL-60(TB), 48 h), 11.1 µM; in [7] (HT29, 48 h) it was 10.1 µM; in [8] (SK-MEL-5, 48 h), 14.1 µM; in [9] (UACC-62, 48 h) it was 19.7 µM; in assay [10] (NCI-H460, 48 h) it was 14.3 µM. The TGI in assay [11] (MCF7, 48 h) stood at 11.9 µM. Besides, the “SI (TGI)” value in assay [5] (SF-295, MG_MID_60/value) came out at 1.39; in assay [6] (HL-60(TB), MG_MID_60/value), 1.68; in [7] (HT29, MG_MID_60/value), 1.84; in assay [8] (SK-MEL-5, MG_MID_60/value) it was 1.32; in [9] (UACC-62, MG_MID_60/value) it was 0.94; in [10] (NCI-H460, MG_MID_60/value), 1.30. The “SI (TGI)” value in [11] (MCF7, MG_MID_60/value) amounted to 1.56. The figures for the survival fraction in [2] (2.5 µM) and in assay [2] (5 µM) were 38.83 ± 1.66% and 12.27 ± 9.27%, respectively. In addition, in assay [10] (Homo sapiens, NCI-H460, 48 h), the LC50 (50% lethal concentration) was found to be 92 µM. Besides, the activity at 1 µM in [3] is 95.5 ± 7.78%. For the same compound, the activity at 2.5 µM in assay [3] was determined as 72 ± 12.7%. Besides, the activity at 5 µM in assay [3] came to 48.5 ± 12%.

Consider `COc1cc(NC2=NC(=O)C(=Cc3cccs3)S2)cc(OC)c1OC` [Les-6423, 5-(Thiophen-2-ylmethylene)-2-((3,4,5-trimethoxyphenyl)amino)thiazol-4(5H)-one], for which the “cells with active caspase 9” value in [4] was “did not show any effect”.

Source of the values: PMC12190436, “5-Ene-2-arylaminothiazol-4(5H)-ones Induce Apoptosis in Breast Cancer Cells” (Cells, 2025).
